Earlier results as cited in patent publication US11304902B2, “Pharmaceutical compositions, preparation and uses thereof” (CURADIGM SAS, priority 2014, dated 2022).

Tests used:
Details in all cases: human CYP enzyme
CYP1A1 = biological target: T1, CYP1A1 (Homo sapiens, UniProt P04798)
T1 sequence (P04798 1-512): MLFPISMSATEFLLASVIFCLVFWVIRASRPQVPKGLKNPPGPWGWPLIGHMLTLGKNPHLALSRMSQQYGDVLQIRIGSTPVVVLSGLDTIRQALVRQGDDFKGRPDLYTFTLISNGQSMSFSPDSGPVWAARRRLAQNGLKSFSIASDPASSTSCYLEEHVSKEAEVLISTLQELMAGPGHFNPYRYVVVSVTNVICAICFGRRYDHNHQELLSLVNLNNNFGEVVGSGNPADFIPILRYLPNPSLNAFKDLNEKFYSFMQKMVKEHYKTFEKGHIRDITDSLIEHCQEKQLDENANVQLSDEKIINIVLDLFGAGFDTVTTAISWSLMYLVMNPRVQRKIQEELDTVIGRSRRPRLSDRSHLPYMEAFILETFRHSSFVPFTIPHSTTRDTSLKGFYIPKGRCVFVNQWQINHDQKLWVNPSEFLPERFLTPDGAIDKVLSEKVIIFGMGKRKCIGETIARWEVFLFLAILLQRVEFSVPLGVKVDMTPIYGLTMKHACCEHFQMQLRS

CYP1A2 = biological target: T2, CYP1A2 (Homo sapiens, UniProt P05177)
T2 sequence (P05177 1-516): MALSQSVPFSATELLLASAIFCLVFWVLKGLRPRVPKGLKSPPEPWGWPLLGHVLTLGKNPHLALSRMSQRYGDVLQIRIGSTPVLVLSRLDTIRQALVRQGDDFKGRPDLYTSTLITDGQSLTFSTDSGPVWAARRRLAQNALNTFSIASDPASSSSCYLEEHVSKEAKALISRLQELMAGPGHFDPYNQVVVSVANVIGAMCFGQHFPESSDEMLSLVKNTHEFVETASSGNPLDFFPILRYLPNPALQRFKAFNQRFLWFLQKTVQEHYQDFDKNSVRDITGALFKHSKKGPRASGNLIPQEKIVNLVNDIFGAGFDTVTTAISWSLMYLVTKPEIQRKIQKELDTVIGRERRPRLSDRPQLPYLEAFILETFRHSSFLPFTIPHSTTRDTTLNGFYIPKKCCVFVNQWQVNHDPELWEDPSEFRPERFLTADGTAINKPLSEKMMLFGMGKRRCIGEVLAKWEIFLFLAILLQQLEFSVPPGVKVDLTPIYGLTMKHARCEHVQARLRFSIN

CYP2C8 = biological target: T3, CYP2C8 (Homo sapiens, UniProt P10632)
T3 sequence (P10632 1-490): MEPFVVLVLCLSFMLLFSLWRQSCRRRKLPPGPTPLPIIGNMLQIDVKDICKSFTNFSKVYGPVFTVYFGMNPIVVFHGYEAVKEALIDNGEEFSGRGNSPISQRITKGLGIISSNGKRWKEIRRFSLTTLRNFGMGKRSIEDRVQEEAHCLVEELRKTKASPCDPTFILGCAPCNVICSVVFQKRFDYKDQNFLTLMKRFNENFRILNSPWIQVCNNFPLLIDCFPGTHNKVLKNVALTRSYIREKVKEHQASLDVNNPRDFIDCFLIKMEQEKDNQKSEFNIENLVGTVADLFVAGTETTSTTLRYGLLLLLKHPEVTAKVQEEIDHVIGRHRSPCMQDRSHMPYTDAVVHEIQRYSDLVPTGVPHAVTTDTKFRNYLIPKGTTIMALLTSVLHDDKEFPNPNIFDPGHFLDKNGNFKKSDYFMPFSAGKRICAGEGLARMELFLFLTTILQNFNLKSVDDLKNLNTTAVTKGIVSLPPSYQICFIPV

CYP3A4 = CYP3A4 (Homo sapiens, UniProt P08684)
CYP3A4, sequence (P08684 whole entry): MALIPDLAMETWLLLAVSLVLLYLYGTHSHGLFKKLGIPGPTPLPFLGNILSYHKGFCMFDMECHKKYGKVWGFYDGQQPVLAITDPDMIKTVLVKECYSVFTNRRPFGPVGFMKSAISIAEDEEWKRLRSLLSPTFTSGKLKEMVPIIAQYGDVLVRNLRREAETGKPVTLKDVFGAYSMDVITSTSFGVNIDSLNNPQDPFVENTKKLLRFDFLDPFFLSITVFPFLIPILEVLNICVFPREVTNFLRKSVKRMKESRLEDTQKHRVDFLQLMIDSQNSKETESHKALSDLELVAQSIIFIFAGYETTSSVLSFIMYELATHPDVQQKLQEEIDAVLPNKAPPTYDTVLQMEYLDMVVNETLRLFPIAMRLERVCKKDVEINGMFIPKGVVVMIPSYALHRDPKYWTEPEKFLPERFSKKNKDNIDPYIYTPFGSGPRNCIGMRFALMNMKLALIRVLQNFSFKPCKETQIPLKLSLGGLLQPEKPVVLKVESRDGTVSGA

CYP11B1 = biological target: T4, CYP11B1 (Homo sapiens, UniProt P15538)
T4 sequence (P15538 25-503): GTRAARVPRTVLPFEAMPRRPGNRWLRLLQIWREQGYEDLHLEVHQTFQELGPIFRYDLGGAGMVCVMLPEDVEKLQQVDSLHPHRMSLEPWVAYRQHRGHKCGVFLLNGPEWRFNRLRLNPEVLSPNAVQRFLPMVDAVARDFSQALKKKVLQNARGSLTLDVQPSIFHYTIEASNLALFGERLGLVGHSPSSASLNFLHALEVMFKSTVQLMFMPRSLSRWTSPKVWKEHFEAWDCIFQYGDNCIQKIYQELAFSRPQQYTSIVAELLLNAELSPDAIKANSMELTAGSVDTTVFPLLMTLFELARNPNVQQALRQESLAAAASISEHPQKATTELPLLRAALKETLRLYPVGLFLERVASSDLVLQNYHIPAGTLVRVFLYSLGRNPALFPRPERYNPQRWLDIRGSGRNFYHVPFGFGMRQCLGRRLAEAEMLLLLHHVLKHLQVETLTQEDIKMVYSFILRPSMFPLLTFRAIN

CYP19 = biological target: T5, CYP19 (Homo sapiens, UniProt P11511)
T5 sequence (P11511 1-503): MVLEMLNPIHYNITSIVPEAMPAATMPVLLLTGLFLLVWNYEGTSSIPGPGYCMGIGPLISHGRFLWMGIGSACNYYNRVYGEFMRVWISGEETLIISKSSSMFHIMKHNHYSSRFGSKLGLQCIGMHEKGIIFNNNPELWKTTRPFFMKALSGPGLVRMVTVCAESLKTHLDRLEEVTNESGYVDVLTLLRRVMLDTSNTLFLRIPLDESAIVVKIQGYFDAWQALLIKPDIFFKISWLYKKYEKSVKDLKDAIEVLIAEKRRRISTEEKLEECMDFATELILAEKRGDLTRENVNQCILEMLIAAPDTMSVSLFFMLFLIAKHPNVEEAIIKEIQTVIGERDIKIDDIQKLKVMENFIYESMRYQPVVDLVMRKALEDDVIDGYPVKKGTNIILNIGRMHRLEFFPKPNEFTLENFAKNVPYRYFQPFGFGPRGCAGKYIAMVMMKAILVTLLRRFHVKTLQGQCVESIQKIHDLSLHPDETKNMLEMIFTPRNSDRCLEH

CYP1A = tested on: CYP1A

O=c1c(O)c(-c2ccc(O)c(O)c2)oc2cc(O)cc(O)c12 [Quercetin, quercetin]
Inhibitor: role towards CYP1A1 (substrate / inhibitor / inducer) (CYP1A1) | role towards CYP1A2 (substrate / inhibitor / inducer) (CYP1A2) | role towards CYP2C8 (substrate / inhibitor / inducer) (CYP2C8) | role towards CYP3A4 (substrate / inhibitor / inducer) (CYP3A4) | role towards CYP11B1 (substrate / inhibitor / inducer) (CYP11B1) | role towards CYP19 (substrate / inhibitor / inducer) (CYP19)

COc1ccc(-c2cc(=O)c3c(O)cc(O)cc3o2)cc1 [Acacetin, acacetin]
Inhibitor: role towards CYP1A (substrate / inhibitor / inducer) (CYP1A)
